Assay [1] relates to Human Gastric Cancer Cell Line (BGC). In words: Tumor cell proliferation assay (MTT), BGC. It is filed as cell-based. Conditions: for inhibition at 10 µM: concentration of 10^−5 mol/L, preliminary screening, 72 hours, read-out: Inhibition rate % BGC; for IC50: secondary screening, 48 hours.
The test system of assay [2] is Human Pancreatic Carcinoma Cells (PANC-1). In words: Tumor cell proliferation assay (MTT), PANC-1. It is filed as cell-based. Conditions: for inhibition at 10 µM: concentration of 10^−5 mol/L, preliminary screening, 72 hours, read-out: Inhibition rate % PANC-1; for IC50: secondary screening, 48 hours.

Molecules are shown by their SMILES.

Experimental findings from patent US8084621B2, “3-Pyrrolo[b]cyclohexylene-2-dihydroindolinone derivatives and uses thereof” (Jiangsu Simcere Pharmaceutical R&D Co. Ltd., priority 2006, dated 2011) are described below.

One may read the inhibition as the percentage by which the read-out fell short of the control. One may read the IC50 as the point on the concentration scale where inhibition reaches its midpoint. High values mean weaker potency in that assay, low ones greater potency in that assay.

For `CCN(CC)CCNC(=O)c1c(C)[nH]c2c1CCC/C2=C1/C(=O)Nc2ccc(F)cc21` [I-2, N-(2-(diethylamino)ethyl)-2-methyl-7-[1,2-dihydro-5-fluoro-2-oxo-3H-indol-(Z)-3-ylidene]-4,5,6,7-tetrahydro-1H-indole-3-carboxamide], in assay [1], the inhibition at 10 µM was found to be 71% and the IC50 came to 6110 nM. For the same compound, the inhibition at 10 µM in assay [2] stood at 70.6%.
Turning to `CCN(CC)CCNC(=O)c1c(C)[nH]c2c1CCC/C2=C1/C(=O)Nc2ccc(Cl)cc21` [I-3, N-(2-(diethylamino)ethyl)-2-methyl-7-[1,2-dihydro-5-chloro-2-oxo-3H-indol-(Z)-3-ylidene]-4,5,6,7-tetrahydro-1H-indole-3-carboxamide], in assay [1], the inhibition at 10 µM came to 78.1% and the IC50 stood at 2030 nM. Also, in assay [2], the inhibition at 10 µM turned out to be 69.8% and it took 1940 nM to reach half-maximal inhibition (IC50).
In the case of `CCN(CC)CCNC(=O)c1c(C)[nH]c2c1CCC/C2=C1/C(=O)Nc2ccccc21` [I-5, N-(2-(diethylamino)ethyl)-2-methyl-7-[1,2-dihydro-2-oxo-3H-indol-(Z)-3-ylidene]-4,5,6,7-tetrahydro-1H-indole-3-carboxamide], in assay [1], the inhibition at 10 µM came to 64% and the IC50 is 6730 nM. For the same compound, in assay [2], the inhibition at 10 µM came to 47.8%.
Consider `Cc1[nH]c2c(c1C(=O)NCCN(C)C)CCC/C2=C1/C(=O)Nc2ccc(F)cc21` [I-6, N-(2-(dimethylamino)ethyl)-2-methyl-7-[1,2-dihydro-5-fluoro-2-oxo-3H-indol-(Z)-3-ylidene]-4,5,6,7-tetrahydro-1H-indole-3-carboxamide], for which the inhibition at 10 µM in assay [1] turned out to be 32.3%; in assay [2] it was 19.8%.
For `Cc1[nH]c2c(c1C(=O)NCCCN(C)C)CCC/C2=C1/C(=O)Nc2ccc(Cl)cc21` [I-7, N-(3-(dimethylamino)propyl)-2-methyl-7-[1,2-dihydro-5-chloro-2-oxo-3H-indol-(Z)-3-ylidene]-4,5,6,7-tetrahydro-1H-indole-3-carboxamide], in assay [1], the inhibition at 10 µM stood at 75.9% and the IC50 amounted to 2760 nM. Moreover, in assay [2], the inhibition at 10 µM was 51.8% and the IC50 was 6630 nM.
As to `Cc1[nH]c2c(c1C(=O)NCCO)CCC/C2=C1/C(=O)Nc2ccccc21` [I-8, N-(2-hydroxyethyl)-2-methyl-7-[1,2-dihydro-2-oxo-3H-indol-(Z)-3-ylidene]-4,5,6,7-tetrahydro-1H-indole-3-carboxamide], the inhibition at 10 µM in assay [1] came out at 47%; in assay [2], 5.66%.
Taken in the same sequence, the figures for `Cc1[nH]c2c(c1C(=O)NCCO)CCC/C2=C1/C(=O)Nc2ccc(F)cc21` [I-9, N-(2-hydroxyethyl)-2-methyl-7-[1,2-dihydro-5-fluoro-2-oxo-3H-indol-(Z)-3-ylidene]-4,5,6,7-tetrahydro-1H-indole-3-carboxamide] were 42.1% and 0%.
Regarding `Cc1[nH]c2c(c1C(=O)N1CCN(C)CC1)CCC/C2=C1/C(=O)Nc2ccc(F)cc21` [I-14, 2-methyl-3-(4-methylpiperazine-1-carbonyl)-7-[1,2-dihydro-5-fluoro-2-oxo-3H-indol-(Z)-3-ylidene]-4,5,6,7-tetrahydro-1H-indole], the inhibition at 10 µM in assay [1] was 39.4%; in assay [2], 14%.
For `CCN(CC)CC(O)CNC(=O)c1c(C)[nH]c2c1CCC/C2=C1/C(=O)Nc2ccccc21` (centres unmarked) [I-63, N-(3-(diethylamino)-2-hydroxypropyl)-2-methyl-7-[1,2-dihydro-2-oxo-3H-indol-(Z)-3-ylidene]-4,5,6,7-tetrahydro-1H-indole-3-carboxamide], the results for the inhibition at 10 µM in assay [1] and in assay [2] were 80.8% and 92.1%, respectively. Further, the results for the IC50 in assay [1] and in assay [2] were 1850 nM and 660 nM, respectively.
As for `Cc1[nH]c2c(c1C(=O)NCC(O)CN1CCOCC1)CCC/C2=C1/C(=O)Nc2ccc(F)cc21` (centres unmarked) [I-68, N-(2-hydroxy-3-morpholinopropyl)-2-methyl-7-[1,2-dihydro-5-fluoro-2-oxo-3H-indol-(Z)-3-ylidene]-4,5,6,7-tetrahydro-1H-indole-3-carboxamide], in assay [1], the inhibition at 10 µM amounted to 55.4% and the IC50 came to 7590 nM. Besides, the inhibition at 10 µM in assay [2] is 34.3%.
As for `Cc1[nH]c2c(c1C(=O)NCC(O)CN1CCCC1)CCC/C2=C1/C(=O)Nc2ccccc21` (centres unmarked) [I-70, N-(2-hydroxy-3-(pyrrolidin-1-yl)propyl)-2-methyl-7-[1,2-dihydro-2-oxo-3H-indol-(Z)-3-ylidene]-4,5,6,7-tetrahydro-1H-indole-3-carboxamide], the inhibition at 10 µM in assay [1] worked out at 84.8%; in assay [2] it was 97.4%. Moreover, the IC50 was 1490 nM in assay [1] and 1630 nM in assay [2].
As for `Cc1[nH]c2c(c1C(=O)NCC(O)CN1CCCC1)CCC/C2=C1/C(=O)Nc2ccc(F)cc21` (centres unmarked) [I-71, N-(2-hydroxy-3-(pyrrolidin-1-yl)propyl)-2-methyl-7-[1,2-dihydro-5-fluoro-2-oxo-3H-indol-(Z)-3-ylidene]-4,5,6,7-tetrahydro-1H-indole-3-carboxamide], in assay [1], the inhibition at 10 µM amounted to 82.3% and half-maximal inhibition (IC50) was put at 1420 nM. Moreover, in assay [2], the inhibition at 10 µM was 97.4% and the IC50 amounted to 1480 nM.
In the case of `Cc1[nH]c2c(c1C(=O)NCC(O)CN1CCCCC1)CCC/C2=C1/C(=O)Nc2ccccc21` (centres unmarked) [I-73, N-(2-hydroxy-3-(piperidin-1-yl)propyl)-2-methyl-7-[1,2-dihydro-2-oxo-3H-indol-(Z)-3-ylidene]-4,5,6,7-tetrahydro-1H-indole-3-carboxamide], in assay [1], the inhibition at 10 µM is 48.8% and the IC50 amounted to 10200 nM. Further, the inhibition at 10 µM in assay [2] is 48%.
Take `Cc1[nH]c2c(c1C(=O)NCC(O)CN1CCCCC1)CCC/C2=C1/C(=O)Nc2ccc(F)cc21` (centres unmarked) [I-74, N-(2-hydroxy-3-(piperidin-1-yl)propyl)-2-methyl-7-[1,2-dihydro-5-fluoro-2-oxo-3H-indol-(Z)-3-ylidene]-4,5,6,7-tetrahydro-1H-indole-3-carboxamide]: in assay [1], the inhibition at 10 µM worked out at 60.2% and the IC50 came to 7950 nM. Also, the inhibition at 10 µM in assay [2] came to 93.6%.
Regarding `Cc1[nH]c2c(c1C(=O)NCC(O)CN1CCN(C)CC1)CCC/C2=C1/C(=O)Nc2ccc(F)cc21` (centres unmarked) [I-77, N-[2-hydroxy-3-(4-methylpiperazin-1-yl)propyl]-2-methyl-7-[1,2-dihydro-5-fluoro-2-oxo-3H-indol-(Z)-3-ylidene]-4,5,6,7-tetrahydro-1H-indole-3-carboxamide], the inhibition at 10 µM was found to be 84.2% in assay [1] and 61.9% in assay [2]. The IC50 in assay [1] stood at 3450 nM; in assay [2], 5530 nM.
